From patent US12612387B2, “RAS inhibitors and methods of using the same” (Jazz Pharmaceuticals Ireland Limited, priority 2020, dated 2026)

Legend:
[1] = target: T1, K-RAS G12C (Homo sapiens, UniProt P01116, G12C); assay: Compound depletion assay, K-RAS G12C; format: binding; details: G12C protein 20 μM, compound 8 μM, 25° C.
T1 construct: His tag; purchased Stratech
In short: (§1)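 His-tagged K-RAS (20 μM) in 20 mM HEPES pH 7.5, 150 mM NaCl, 1 mM MgCl2 incubated with 8 μM compound (final) at 25 °C with agitation. At 0, 30, 180, 360, 1440 min, samples were acid/acetonitrile-quenched and remaining free compound quantified by LC-MS/MS against propranolol, as percent of time zero.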

[2] = target: T2, K-RAS G12D (Homo sapiens, UniProt P01116, G12D); assay: Compound depletion assay, K-RAS G12D; format: binding; details: G12D protein 20 μM, compound 8 μM, 25° C.
T2 construct: His tag; purchased Stratech
T2 sequence (P01116 1-188 isoform P01116-2 G12D): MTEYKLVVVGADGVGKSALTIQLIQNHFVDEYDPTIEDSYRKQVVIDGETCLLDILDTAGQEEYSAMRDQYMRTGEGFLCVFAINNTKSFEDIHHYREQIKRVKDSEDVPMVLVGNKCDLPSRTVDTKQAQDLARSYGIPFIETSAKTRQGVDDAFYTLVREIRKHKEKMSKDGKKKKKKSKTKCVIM
In short: as §1

T1 sequence (P01116 1-188 isoform P01116-2 G12C): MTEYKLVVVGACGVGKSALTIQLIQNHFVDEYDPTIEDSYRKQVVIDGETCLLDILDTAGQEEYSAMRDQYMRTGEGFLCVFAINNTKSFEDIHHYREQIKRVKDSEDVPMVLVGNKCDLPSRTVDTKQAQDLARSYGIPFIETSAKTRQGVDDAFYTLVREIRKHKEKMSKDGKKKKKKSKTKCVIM

Row | Compound | 3 hr Category (compound remaining at timepoint) [1] | 6 hr Category (compound remaining at timepoint) [1] | 24 hr Category (compound remaining at timepoint) [1] | 30 min Category (compound remaining at timepoint) [2] | 3 hr Category (compound remaining at timepoint) [2] | 6 hr Category (compound remaining at timepoint) [2] | 24 hr Category (compound remaining at timepoint) [2] | 30 min Category (compound remaining at timepoint) [1]
1 | C=CC(=O)N1CCN(c2cc(C(=O)Nc3cccc4ccccc34)nc(-c3cccnc3)n2)CC1 [Example 09, N-(1-naphthyl)-6-(4-prop-2-enoylpiperazin-1-yl)-2-(3-pyridyl)pyrimidine-4-carboxamide] | A (≥70% compound remaining at timepoint) | A (≥70% compound remaining at timepoint) | B (30%-70% compound remaining at timepoint) | A (≥70% compound remaining at timepoint) | A (≥70% compound remaining at timepoint) | A (≥70% compound remaining at timepoint) | A (≥70% compound remaining at timepoint) | –
2 | C=CC(=O)N1CCN(c2cc(C(=O)Nc3cc(O)cc4ccccc34)nc(-c3ccncc3)n2)C[C@@H]1CC#N [Example 26, 6-[(3S)-3-(cyanomethyl)-4-prop-2-enoyl-piperazin-1-yl]-N-(3-hydroxy-1-naphthyl)-2-(4-pyridyl)pyrimidine-4-carboxamide] | A (≥70% compound remaining at timepoint) | A (≥70% compound remaining at timepoint) | – | A (≥70% compound remaining at timepoint) | A (≥70% compound remaining at timepoint) | A (≥70% compound remaining at timepoint) | – | A (≥70% compound remaining at timepoint)
3 | C=CC(=O)N1CCN(c2cc(C(=O)Nc3cc(O)cc4ccccc34)nc(NCCC3CCCN3C)n2)C[C@@H]1CC#N (stereo partly drawn) [Example 30, 6-[(3S)-3-(cyanomethyl)-4-prop-2-enoyl-piperazin-1-yl]-N-(3-hydroxy-1-naphthyl)-2-[2-(1-methylpyrrolidin-2-yl)ethylamino]pyrimidine-4-carboxamide] | C (≤30% compound remaining at timepoint) | C (≤30% compound remaining at timepoint) | – | A (≥70% compound remaining at timepoint) | A (≥70% compound remaining at timepoint) | A (≥70% compound remaining at timepoint) | – | B (30%-70% compound remaining at timepoint)
4 | C=CC(=O)N1CCN(c2cc(C(=O)Nc3cccc4ccccc34)nc(N(C)CCN(C)C)n2)CC1 [Example 21, 2-[2-(dimethylamino)ethyl-methyl-amino]-N-(1-naphthyl)-6-(4-prop-2-enoylpiperazin-1-yl)pyrimidine-4-carboxamide] | A (≥70% compound remaining at timepoint) | – | A (≥70% compound remaining at timepoint) | – | A (≥70% compound remaining at timepoint) | – | A (≥70% compound remaining at timepoint) | –
5 | C=CC(=O)N1CCN(c2cc(C(=O)N3c4ccccc4CCC3C)nc(OC[C@@H]3CCCN3C)n2)CC1 (stereo partly drawn) [Example 15, 1-[4-[6-(2-methyl-3,4-dihydro-2H-quinoline-1-carbonyl)-2-[[(2S)-1-methylpyrrolidin-2-yl]methoxy]pyrimidin-4-yl]piperazin-1-yl]prop-2-en-1-one] | A (≥70% compound remaining at timepoint) | – | A (≥70% compound remaining at timepoint) | – | A (≥70% compound remaining at timepoint) | – | A (≥70% compound remaining at timepoint) | –
6 | C=CC(=O)N1CCN(c2cc(C(=O)Nc3cc(O)cc4ccccc34)nc(Cc3ccccc3)n2)C[C@@H]1CC#N [Example 40, 2-benzyl-6-[(3S)-3-(cyanomethyl)-4-prop-2-enoyl-piperazin-1-yl]-N-(3-hydroxy-1-naphthyl)pyrimidine-4-carboxamide] | A (≥70% compound remaining at timepoint) | A (≥70% compound remaining at timepoint) | – | A (≥70% compound remaining at timepoint) | A (≥70% compound remaining at timepoint) | A (≥70% compound remaining at timepoint) | – | A (≥70% compound remaining at timepoint)
7 | C=CC(=O)N1CCN(c2cc(C(=O)Nc3cc(O)cc4ccccc34)nc(OCC3CCCN(C)C3)n2)C[C@@H]1CC#N (stereo partly drawn) [Example 50, 6-[(3S)-3-(cyanomethyl)-4-prop-2-enoyl-piperazin-1-yl]-N-(3-hydroxy-1-naphthyl)-2-[(1-methyl-3-piperidyl)methoxy]pyrimidine-4-carboxamide] | C (≤30% compound remaining at timepoint) | C (≤30% compound remaining at timepoint) | – | A (≥70% compound remaining at timepoint) | A (≥70% compound remaining at timepoint) | A (≥70% compound remaining at timepoint) | – | C (≤30% compound remaining at timepoint)
8 | C=CC(=O)N1CCN(c2cc(C(=O)Nc3cc(O)cc4ccccc34)nc(NC[C@@H]3CCCN3CCO)n2)C[C@@H]1CC#N [Example 46, 6-[(3S)-3-(cyanomethyl)-4-prop-2-enoyl-piperazin-1-yl]-2-[[(2S)-1-(2-hydroxyethyl)pyrrolidin-2-yl]methylamino]-N-(3-hydroxy-1-naphthyl)pyrimidine-4-carboxamide] | C (≤30% compound remaining at timepoint) | C (≤30% compound remaining at timepoint) | – | A (≥70% compound remaining at timepoint) | A (≥70% compound remaining at timepoint) | A (≥70% compound remaining at timepoint) | – | B (30%-70% compound remaining at timepoint)
9 | C=CC(=O)N1CCN(c2cc(C(=O)Nc3cccc4ccccc34)nc(OCCN3CCOCC3)n2)CC1 [Example 07, 2-(2-morpholinoethoxy)-N-(1-naphthyl)-6-(4-prop-2-enoylpiperazin-1-yl)pyrimidine-4-carboxamide] | A (≥70% compound remaining at timepoint) | – | A (≥70% compound remaining at timepoint) | – | A (≥70% compound remaining at timepoint) | – | A (≥70% compound remaining at timepoint) | –
